Test system: HCC827 cells (EGFR Exon19 del, non-small cell lung cancer cells)
Test: Cell viability assay (WST/CCK8), HCC827 cells
Format: cell-based
Details: Homo sapiens, HCC827, 72 h, HCC827 (Exon19 Del), 72 hours, WST (CCK8); read-out: IC50 (half inhibitory concentration)
Source text: The cell lines with abnormal EGFR expression used are as follows: • HCC827 cells (EGFR Exon19 del, non-small cell lung cancer cells); • PC9 cells (EGFR Exon 19 del, non-small cell lung cancer cells); • PC9BracA1 (EGFR Exon 19 del+T790M, non-small cell lung cancer cells) • H1975 (EGFR Exon T790M+L858R mutation, non-small cell lung cancer cell line) • BT474 cells (HER2 positive breast cancer cells)
All of the half inhibitory concentrations (IC50) of these compounds of the present invention were determined with WST reagent from Fuyuan Biotec Company. The specific experiment procedures are as follows: Cancer cells were planted in 96-well-plate at the density of 3 000 cells per well with 100 μL RPMI1640 completed culture medium. In the next day, compounds with indicated concentrations were added to the cells, DMSO was used as the negative control and the EGFR TKIs were used to treat cells as the positive groups. After 72 hours drug treatment, cell viability was measured by using the WST reagent following the instructions.
The cells were treated with the gradient concentration of these compounds (the maximum concentration: 10 μM; 3-fold dilution ratio, 10 concentration gradients) for 72 hours and then incubated with the WST (CCK8) reagent to determine the cell viability.

| SMILES | IC50 [nM] |
| --- | --- |
| COc1cc2ncnc(Nc3ccc(F)c(Cl)c3)c2cc1NC(=O)/C=C/CN1CCN(C(=O)CCCCC(=O)N[C@H](C(=O)N2C[C@H](O)C[C@H]2C(=O)NCc2ccc(-c3scnc3C)cc2)C(C)(C)C)CC1 [SIAIS249042, (2S,4R)-1-((S)-2-(6-(4-((E)-4-((4-((3-chloro-4-fluorophenyl)amino)-7-methoxyquinazolin-6-yl)amino)-4-oxobut-2-en-1-yl)piperazin-1-yl)-6-oxohexanamido)-3,3-dimethylbutanoyl)-4-hydroxy-N-(4-(4-methylthiazol-5-yl)benzyl)pyrrolidine-2-carboxamide] | 31.3 |
| COc1cc2ncnc(Nc3ccc(F)c(Cl)c3)c2cc1NC(=O)/C=C/CN1CCN(C(=O)CCOCCOCCOCCNc2cccc3c2C(=O)N(C2CCC(=O)NC2=O)C3=O)CC1 (stereo not drawn) [SIAIS249047, (E)-N-(4-((3-chloro-4-fluorophenyl)amino)-7-methoxyquinazolin-6-yl)-4-(4-(3-(2-(2-(2-((2-(2,6-dioxopiperidin-3-yl)-1,3-dioxoisoindolin-4-yl)amino)ethoxy)ethoxy)ethoxy)propanoyl)piperazin-1-yl)but-2-enamide] | 23.6 |
| COc1cc2ncnc(Nc3ccc(F)c(Cl)c3)c2cc1NC(=O)/C=C/CN1CCN(C(=O)COCCOCCOCCOCCSc2cccc3c2CN(C2CCC(=O)NC2=O)C3=O)CC1 (stereo not drawn) [SIAIS262003, (E)-N-(4-((3-chloro-4-fluorophenyl)amino)-7-methoxyquinazolin-6-yl)-4-(4-(14-((2-(2,6-dioxopiperidin-3-yl)-1-oxoisoindolin-4-yl)thio)-3,6,9,12-tetraoxatetradecan-1-oyl)piperazin-1-yl)but-2-enamide] | 104 |
| COc1cc2ncnc(Nc3ccc(F)c(Cl)c3)c2cc1NC(=O)/C=C/CN1CCN(C(=O)COCCOCCOCCOCCOCCSc2cccc3c2C(=O)N(C2CCC(=O)NC2=O)C3=O)CC1 (stereo not drawn) [SIAIS262008, (E)-N-(4-((3-chloro-4-fluorophenyl)amino)-7-methoxyquinazolin-6-yl)-4-(4-(17-((2-(2,6-dioxopiperidin-3-yl)-1,3-dioxoisoindolin-4-yl)thio)-3,6,9,12,15-pentaoxaheptadecanoyl)piperazin-1-yl)but-2-enamide] | 46.6 |

Continued, values first:

| IC50 [nM] | SMILES |
| --- | --- |
| 5.9 | COc1cc2ncnc(Nc3ccc(F)c(Cl)c3)c2cc1NC(=O)/C=C/CN1CCC(N2CCN(CCCCCNc3cccc4c3C(=O)N(C3CCC(=O)NC3=O)C4=O)CC2)CC1 (stereo not drawn) [SIAIS262071, (E)-N-(4-((3-chloro-4-fluorophenyl)amino)-7-methoxyquinazolin-6-yl)-4-(4-(4-(5-((2-(2,6-dioxopiperidin-3-yl)-1,3-dioxoisoindolin-4-yl)amino)pentyl)piperazin-1-yl)piperidin-1-yl)but-2-enamide] |
| 16.9 | COc1cc2ncnc(Nc3ccc(F)c(Cl)c3)c2cc1NC(=O)/C=C/CN1CCC(N2CCN(CCCCCCNc3cccc4c3C(=O)N(C3CCC(=O)NC3=O)C4=O)CC2)CC1 (stereo not drawn) [SIAIS262072, (E)-N-(4-((3-chloro-4-fluorophenyl)amino)-7-methoxyquinazolin-6-yl)-4-(4-(4-(6-((2-(2,6-dioxopiperidin-3-yl)-1,3-dioxoisoindolin-4-yl)amino)hexyl)piperazin-1-yl)piperidin-1-yl)but-2-enamide] |

Same assay, conditions: Homo sapiens, HCC827, 72 h, Table 3, poziotinib-based compounds; HCC827 (Exon19 Del); 72 hours; WST (CCK8); read-out: IC50 (half inhibitory concentration)

| IC50 [nM] | SMILES |
| --- | --- |
| 240 | COc1cc2ncnc(Nc3ccc(Cl)c(Cl)c3F)c2cc1OC1CCN(C(=O)CCOCCOCCOCCOCCOCCC(=O)N[C@H](C(=O)N2C[C@H](O)C[C@H]2C(=O)NCc2ccc(-c3scnc3C)cc2)C(C)(C)C)CC1 [SIAIS249028, (2S,4R)-1-((S)-2-(tert-butyl)-22-(4-((4-((3,4-dichloro-2-fluorophenyl)amino)-7-methoxyquinazolin-6-yl)oxy)piperidin-1-yl)-4,22-dioxo-7,10,13,16,19-pentaoxa-3-azadocosan-1-oyl)-4-hydroxy-N-(4-(4-methylthiazol-5-yl)benzyl)pyrrolidine-2-carboxamide] |
| 80 | COc1cc2ncnc(Nc3ccc(Cl)c(Cl)c3F)c2cc1OC1CCN(C(=O)CCOCCNc2cccc3c2C(=O)N(C2CCC(=O)NC2=O)C3=O)CC1 (stereo not drawn) [SIAIS249029, 4-((2-(3-(4-((4-((3,4-dichloro-2-fluorophenyl)amino)-7-methoxyquinazolin-6-yl)oxy)piperidin-1-yl)-3-oxopropoxy)ethyl)amino)-2-(2,6-dioxopiperidin-3-yl)isoindoline-1,3-dione] |
| 6.3 | COc1cc2ncnc(Nc3ccc(Cl)c(Cl)c3F)c2cc1OC1CCN(C(=O)CCOCCOCCNc2cccc3c2C(=O)N(C2CCC(=O)NC2=O)C3=O)CC1 (stereo not drawn) [SIAIS249030, 4-((2-(2-(3-(4-((4-((3,4-dichloro-2-fluorophenyl)amino)-7-methoxyquinazolin-6-yl)oxy)piperidin-1-yl)-3-oxopropoxy)ethoxy)ethyl)amino)-2-(2,6-dioxopiperidin-3-yl)isoindoline-1,3-dione] |
| 28.2 | COc1cc2ncnc(Nc3ccc(Cl)c(Cl)c3F)c2cc1OC1CCN(C(=O)CCOCCOCCOCCNc2cccc3c2C(=O)N(C2CCC(=O)NC2=O)C3=O)CC1 (stereo not drawn) [SIAIS249031, 4-((2-(2-(2-(3-(4-((4-((3,4-dichloro-2-fluorophenyl)amino)-7-methoxyquinazolin-6-yl)oxy)piperidin-1-yl)-3-oxopropoxy)ethoxy)ethoxy)ethyl)amino)-2-(2,6-dioxopiperidin-3-yl)isoindoline-1,3-dione] |
| 11 | COc1cc2ncnc(Nc3ccc(Cl)c(Cl)c3F)c2cc1OC1CCN(C(=O)CCOCCOCCOCCOCCNc2cccc3c2C(=O)N(C2CCC(=O)NC2=O)C3=O)CC1 (stereo not drawn) [SIAIS249032, 4-((15-(4-((4-((3,4-dichloro-2-fluorophenyl)amino)-7-methoxyquinazolin-6-yl)oxy)piperidin-1-yl)-15-oxo-3,6,9,12-tetraoxapentadecyl)amino)-2-(2,6-dioxopiperidin-3-yl)isoindoline-1,3-dione] |
| 13 | COc1cc2ncnc(Nc3ccc(Cl)c(Cl)c3F)c2cc1OC1CCN(C(=O)CCOCCOCCOCCOCCOCCNc2cccc3c2C(=O)N(C2CCC(=O)NC2=O)C3=O)CC1 (stereo not drawn) [SIAIS249033, 4-((18-(4-((4-((3,4-dichloro-2-fluorophenyl)amino)-7-methoxyquinazolin-6-yl)oxy)piperidin-1-yl)-18-oxo-3,6,9,12,15-pentaoxaoctadecyl)amino)-2-(2,6-dioxopiperidin-3-yl)isoindoline-1,3-dione] |

Same assay, conditions: Homo sapiens, HCC827, 72 h, Table 4, gefitinib and sapitinib-based compounds; HCC827 (Exon19 Del); 72 hours; WST; read-out: IC50 (half inhibitory concentration)

| IC50 [nM] | SMILES |
| --- | --- |
| 41 | COc1cc2ncnc(Nc3ccc(F)c(Cl)c3)c2cc1OCCCN1CCC(N2CCNCC2)CC1 [SIAIS262080, N-(3-chloro-4-fluorophenyl)-7-methoxy-6-(3-(4-(piperazin-1-yl)piperidin-1-yl)propoxy)quinazolin-4-amine] |
| 145 | COc1cc2ncnc(Nc3ccc(F)c(Cl)c3)c2cc1OCCCN1CCC(N2CCN(C(=O)CSc3cccc4c3CN(C3CCC(=O)NC3=O)C4=O)CC2)CC1 (stereo not drawn) [SIAIS262085, 3-(4-((2-(4-(1-(3-((4-((3-chloro-4-fluorophenyl)amino)-7-methoxyquinazolin-6-yl)oxy)propyl)piperidin-4-yl)piperazin-1-yl)-2-oxoethyl)thio)-1-oxoisoindolin-2-yl)piperidine-2,6-dione] |
| 59 | COc1cc2ncnc(Nc3ccc(F)c(Cl)c3)c2cc1OCCCN1CCC(N2CCN(C(=O)CCCCSc3cccc4c3CN(C3CCC(=O)NC3=O)C4=O)CC2)CC1 (stereo not drawn) [SIAIS262086, 3-(4-((5-(4-(1-(3-((4-((3-chloro-4-fluorophenyl)amino)-7-methoxyquinazolin-6-yl)oxy)propyl)piperidin-4-yl)piperazin-1-yl)-5-oxopentyl)thio)-1-oxoisoindolin-2-yl)piperidine-2,6-dione] |
| 31 | COc1cc2ncnc(Nc3ccc(F)c(Cl)c3)c2cc1OCCCN1CCC(N2CCN(C(=O)CCCCCSc3cccc4c3CN(C3CCC(=O)NC3=O)C4=O)CC2)CC1 (stereo not drawn) [SIAIS262087, 3-(4-((6-(4-(1-(3-((4-((3-chloro-4-fluorophenyl)amino)-7-methoxyquinazolin-6-yl)oxy)propyl)piperidin-4-yl)piperazin-1-yl)-6-oxohexyl)thio)-1-oxoisoindolin-2-yl)piperidine-2,6-dione] |
| 102 | COc1cc2ncnc(Nc3ccc(F)c(Cl)c3)c2cc1OCCCN1CCC(N2CCN(CCCC#Cc3cccc4c3CN(C3CCC(=O)NC3=O)C4=O)CC2)CC1 (stereo not drawn) [SIAIS262089, 3-(4-(5-(4-(1-(3-((4-((3-chloro-4-fluorophenyl)amino)-7-methoxyquinazolin-6-yl)oxy)propyl)piperidin-4-yl)piperazin-1-yl)pent-1-yn-1-yl)-1-oxoisoindolin-2-yl)piperidine-2,6-dione] |
| 47 | COc1cc2ncnc(Nc3ccc(F)c(Cl)c3)c2cc1OCCCN1CCC(N2CCN(CCCCC#Cc3cccc4c3CN(C3CCC(=O)NC3=O)C4=O)CC2)CC1 (stereo not drawn) [SIAIS262090, 3-(4-(6-(4-(1-(3-((4-((3-chloro-4-fluorophenyl)amino)-7-methoxyquinazolin-6-yl)oxy)propyl)piperidin-4-yl)piperazin-1-yl)hex-1-yn-1-yl)-1-oxoisoindolin-2-yl)piperidine-2,6-dione] |

— patent US12564638B2 (SHANGHAITECH UNIVERSITY, priority 2019, dated 2026)
